Test results: patent US20230017045A1, “PYRIDINE AND PYRIMIDINE CARBOXYLATE HERBICIDES AND METHODS OF USE THEREOF” (Dow AgroSciences LLC, priority 2017, published 2023)

Tested on: test plant species
Experiment: Post-emergent herbicidal activity test (greenhouse, foliar spray, visual growth reduction)
Format: in vivo
Conditions: post-emergence, 336 h, ECHCG: barnyardgrass (Echinochloa crus-galli), 140 g ai/ha, 14 days after application, read-out: Visual Growth Reduction (%) 14 Days After Application, ECHCG
Summary of the method: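 Plants grown in greenhouse (15 h photoperiod, 23-29° C day/22-28° C night) to first or second true leaf stage were sprayed overhead with compound in acetone/water/isopropanol/DMSO/crop oil/X-77 carrier at 187 L/ha. Injury was scored visually after 14 d on a 0-100% scale versus solvent-blank and untreated controls.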

SMILES	pest or weed control at 140 g/ha [%]
COc1cc2c(cc1-c1nc(C(=O)O)c(Cl)cc1F)OC(F)(F)O2 [F344, 3-Chloro-6-(2,2-difluoro-6-methoxybenzo[d][1,3]dioxol-5-yl)-5-fluoropicolinic acid]	0 to 29
COC(=O)c1nc(-c2ccc(OS(=O)(=O)C(F)(F)F)cc2Cl)ccc1Cl [F364, methyl 3-chloro-6-(2-chloro-4-(((trifluoromethyl)sulfonyl)oxy)phenyl)picolinate]	0 to 29
COC(=O)c1nc(-c2ccc3c(c2)C(F)(F)OC(F)(F)O3)c(Cl)cc1Cl [F202, Methyl 3,5-dichloro-6-(2,2,4,4-tetrafluoro-4H-benzo[d][1,3]dioxin-6-yl)picolinate]	0 to 29

Same assay, conditions: post-emergence, 336 h, IPOHE: ivy-leaf morning glory (Ipomoea hederacea), 140 g ai/ha, 14 days after application, read-out: Visual Growth Reduction (%) 14 Days After Application, IPOHE

SMILES	pest or weed control at 140 g/ha [%]
COc1cc2c(cc1-c1nc(C(=O)O)c(Cl)cc1F)OC(F)(F)O2 [F344, 3-Chloro-6-(2,2-difluoro-6-methoxybenzo[d][1,3]dioxol-5-yl)-5-fluoropicolinic acid]	95 to 100
COC(=O)c1nc(-c2ccc(OS(=O)(=O)C(F)(F)F)cc2Cl)ccc1Cl [F364, methyl 3-chloro-6-(2-chloro-4-(((trifluoromethyl)sulfonyl)oxy)phenyl)picolinate]	85 to 94
COC(=O)c1nc(-c2ccc3c(c2)C(F)(F)OC(F)(F)O3)c(Cl)cc1Cl [F202, Methyl 3,5-dichloro-6-(2,2,4,4-tetrafluoro-4H-benzo[d][1,3]dioxin-6-yl)picolinate]	0 to 29

Same assay, conditions: post-emergence, 336 h, KCHSC: kochia (Bassia scoparia), 140 g ai/ha, 14 days after application, read-out: Visual Growth Reduction (%) 14 Days After Application, KCHSC

SMILES	pest or weed control at 140 g/ha [%]
COc1cc2c(cc1-c1nc(C(=O)O)c(Cl)cc1F)OC(F)(F)O2 [F344, 3-Chloro-6-(2,2-difluoro-6-methoxybenzo[d][1,3]dioxol-5-yl)-5-fluoropicolinic acid]	45 to 59
COC(=O)c1nc(-c2ccc(OS(=O)(=O)C(F)(F)F)cc2Cl)ccc1Cl [F364, methyl 3-chloro-6-(2-chloro-4-(((trifluoromethyl)sulfonyl)oxy)phenyl)picolinate]	0 to 29
COC(=O)c1nc(-c2ccc3c(c2)C(F)(F)OC(F)(F)O3)c(Cl)cc1Cl [F202, Methyl 3,5-dichloro-6-(2,2,4,4-tetrafluoro-4H-benzo[d][1,3]dioxin-6-yl)picolinate]	0 to 29

Same assay, conditions: post-emergence, 336 h, ORYSA: rice (Oryza sativa), 140 g ai/ha, 14 days after application, read-out: Visual Growth Reduction (%) 14 Days After Application, ORYSA

SMILES	pest or weed control at 140 g/ha [%]
COc1cc2c(cc1-c1nc(C(=O)O)c(Cl)cc1F)OC(F)(F)O2 [F344, 3-Chloro-6-(2,2-difluoro-6-methoxybenzo[d][1,3]dioxol-5-yl)-5-fluoropicolinic acid]	0 to 29
COC(=O)c1nc(-c2ccc(OS(=O)(=O)C(F)(F)F)cc2Cl)ccc1Cl [F364, methyl 3-chloro-6-(2-chloro-4-(((trifluoromethyl)sulfonyl)oxy)phenyl)picolinate]	0 to 29
COC(=O)c1nc(-c2ccc3c(c2)C(F)(F)OC(F)(F)O3)c(Cl)cc1Cl [F202, Methyl 3,5-dichloro-6-(2,2,4,4-tetrafluoro-4H-benzo[d][1,3]dioxin-6-yl)picolinate]	0 to 29

Same assay, conditions: post-emergence, 336 h, SETFA: giant foxtail (Setaria faberi), 140 g ai/ha, 14 days after application, read-out: Visual Growth Reduction (%) 14 Days After Application, SETFA

SMILES	pest or weed control at 140 g/ha [%]
COc1cc2c(cc1-c1nc(C(=O)O)c(Cl)cc1F)OC(F)(F)O2 [F344, 3-Chloro-6-(2,2-difluoro-6-methoxybenzo[d][1,3]dioxol-5-yl)-5-fluoropicolinic acid]	60 to 74
COC(=O)c1nc(-c2ccc(OS(=O)(=O)C(F)(F)F)cc2Cl)ccc1Cl [F364, methyl 3-chloro-6-(2-chloro-4-(((trifluoromethyl)sulfonyl)oxy)phenyl)picolinate]	60 to 74
COC(=O)c1nc(-c2ccc3c(c2)C(F)(F)OC(F)(F)O3)c(Cl)cc1Cl [F202, Methyl 3,5-dichloro-6-(2,2,4,4-tetrafluoro-4H-benzo[d][1,3]dioxin-6-yl)picolinate]	0 to 29

Same assay, conditions: post-emergence, 336 h, SORVU: grain sorghum (Sorghum vulgare), 140 g ai/ha, 14 days after application, read-out: Visual Growth Reduction (%) 14 Days After Application, SORVU

SMILES	pest or weed control at 140 g/ha [%]
COc1cc2c(cc1-c1nc(C(=O)O)c(Cl)cc1F)OC(F)(F)O2 [F344, 3-Chloro-6-(2,2-difluoro-6-methoxybenzo[d][1,3]dioxol-5-yl)-5-fluoropicolinic acid]	75 to 84
COC(=O)c1nc(-c2ccc(OS(=O)(=O)C(F)(F)F)cc2Cl)ccc1Cl [F364, methyl 3-chloro-6-(2-chloro-4-(((trifluoromethyl)sulfonyl)oxy)phenyl)picolinate]	85 to 94
COC(=O)c1nc(-c2ccc3c(c2)C(F)(F)OC(F)(F)O3)c(Cl)cc1Cl [F202, Methyl 3,5-dichloro-6-(2,2,4,4-tetrafluoro-4H-benzo[d][1,3]dioxin-6-yl)picolinate]	0 to 29

Same assay, conditions: post-emergence, 336 h, STEME: common chickweed (Stellaria media), 140 g ai/ha, 14 days after application, read-out: Visual Growth Reduction (%) 14 Days After Application, STEME

SMILES	pest or weed control at 140 g/ha [%]
COc1cc2c(cc1-c1nc(C(=O)O)c(Cl)cc1F)OC(F)(F)O2 [F344, 3-Chloro-6-(2,2-difluoro-6-methoxybenzo[d][1,3]dioxol-5-yl)-5-fluoropicolinic acid]	0 to 29
COC(=O)c1nc(-c2ccc(OS(=O)(=O)C(F)(F)F)cc2Cl)ccc1Cl [F364, methyl 3-chloro-6-(2-chloro-4-(((trifluoromethyl)sulfonyl)oxy)phenyl)picolinate]	0 to 29
COC(=O)c1nc(-c2ccc3c(c2)C(F)(F)OC(F)(F)O3)c(Cl)cc1Cl [F202, Methyl 3,5-dichloro-6-(2,2,4,4-tetrafluoro-4H-benzo[d][1,3]dioxin-6-yl)picolinate]	0 to 29

Same assay, conditions: post-emergence, 336 h, TRZAS: wheat, spring (Triticum aestivum), 140 g ai/ha, 14 days after application, read-out: Visual Growth Reduction (%) 14 Days After Application, TRZAS

SMILES	pest or weed control at 140 g/ha [%]
COc1cc2c(cc1-c1nc(C(=O)O)c(Cl)cc1F)OC(F)(F)O2 [F344, 3-Chloro-6-(2,2-difluoro-6-methoxybenzo[d][1,3]dioxol-5-yl)-5-fluoropicolinic acid]	45 to 59
COC(=O)c1nc(-c2ccc(OS(=O)(=O)C(F)(F)F)cc2Cl)ccc1Cl [F364, methyl 3-chloro-6-(2-chloro-4-(((trifluoromethyl)sulfonyl)oxy)phenyl)picolinate]	0 to 29
COC(=O)c1nc(-c2ccc3c(c2)C(F)(F)OC(F)(F)O3)c(Cl)cc1Cl [F202, Methyl 3,5-dichloro-6-(2,2,4,4-tetrafluoro-4H-benzo[d][1,3]dioxin-6-yl)picolinate]	0 to 29

Same assay, conditions: post-emergence, 336 h, blackgrass (Alopecurus myosuroides), 14 Days After Application, 140 g ai/ha, read-out: Visual Growth Reduction (%) ALOMY

SMILES	pest or weed control at 140 g/ha [%]
COc1cc2c(cc1-c1nc(C(=O)O)c(Cl)cc1F)OC(F)(F)O2 [F344, 3-Chloro-6-(2,2-difluoro-6-methoxybenzo[d][1,3]dioxol-5-yl)-5-fluoropicolinic acid]	0 to 29
COC(=O)c1nc(-c2ccc(OS(=O)(=O)C(F)(F)F)cc2Cl)ccc1Cl [F364, methyl 3-chloro-6-(2-chloro-4-(((trifluoromethyl)sulfonyl)oxy)phenyl)picolinate]	0 to 29
COC(=O)c1nc(-c2ccc3c(c2)C(F)(F)OC(F)(F)O3)c(Cl)cc1Cl [F202, Methyl 3,5-dichloro-6-(2,2,4,4-tetrafluoro-4H-benzo[d][1,3]dioxin-6-yl)picolinate]	0 to 29

Same assay, conditions: post-emergence, 336 h, canada thistle (Cirsium arvense), 14 Days After Application, 140 g ai/ha, read-out: Visual Growth Reduction (%) CIRAR

SMILES	pest or weed control at 140 g/ha [%]
COC(=O)c1nc(-c2ccc(OS(=O)(=O)C(F)(F)F)cc2Cl)ccc1Cl [F364, methyl 3-chloro-6-(2-chloro-4-(((trifluoromethyl)sulfonyl)oxy)phenyl)picolinate]	60 to 74
COC(=O)c1nc(-c2ccc3c(c2)C(F)(F)OC(F)(F)O3)c(Cl)cc1Cl [F202, Methyl 3,5-dichloro-6-(2,2,4,4-tetrafluoro-4H-benzo[d][1,3]dioxin-6-yl)picolinate]	0 to 29

Same assay, conditions: post-emergence, 336 h, crabgrass (Digitaria sanguinalis), 14 Days After Application, 140 g ai/ha, read-out: Visual Growth Reduction (%) DIGSA

SMILES	pest or weed control at 140 g/ha [%]
COc1cc2c(cc1-c1nc(C(=O)O)c(Cl)cc1F)OC(F)(F)O2 [F344, 3-Chloro-6-(2,2-difluoro-6-methoxybenzo[d][1,3]dioxol-5-yl)-5-fluoropicolinic acid]	60 to 74
COC(=O)c1nc(-c2ccc(OS(=O)(=O)C(F)(F)F)cc2Cl)ccc1Cl [F364, methyl 3-chloro-6-(2-chloro-4-(((trifluoromethyl)sulfonyl)oxy)phenyl)picolinate]	75 to 84
COC(=O)c1nc(-c2ccc3c(c2)C(F)(F)OC(F)(F)O3)c(Cl)cc1Cl [F202, Methyl 3,5-dichloro-6-(2,2,4,4-tetrafluoro-4H-benzo[d][1,3]dioxin-6-yl)picolinate]	0 to 29

Same assay, conditions: post-emergence, 336 h, lambsquarters (Chenopodium album), 14 Days After Application, 140 g ai/ha, read-out: Visual Growth Reduction (%) CHEAL

SMILES	pest or weed control at 140 g/ha [%]
COc1cc2c(cc1-c1nc(C(=O)O)c(Cl)cc1F)OC(F)(F)O2 [F344, 3-Chloro-6-(2,2-difluoro-6-methoxybenzo[d][1,3]dioxol-5-yl)-5-fluoropicolinic acid]	30 to 44
COC(=O)c1nc(-c2ccc(OS(=O)(=O)C(F)(F)F)cc2Cl)ccc1Cl [F364, methyl 3-chloro-6-(2-chloro-4-(((trifluoromethyl)sulfonyl)oxy)phenyl)picolinate]	75 to 84
COC(=O)c1nc(-c2ccc3c(c2)C(F)(F)OC(F)(F)O3)c(Cl)cc1Cl [F202, Methyl 3,5-dichloro-6-(2,2,4,4-tetrafluoro-4H-benzo[d][1,3]dioxin-6-yl)picolinate]	0 to 29

Same assay, conditions: post-emergence, 336 h, redroot pigweed (Amaranthus retroflexus), 14 Days After Application, 140 g ai/ha, read-out: Visual Growth Reduction (%) AMARE

SMILES	pest or weed control at 140 g/ha [%]
COc1cc2c(cc1-c1nc(C(=O)O)c(Cl)cc1F)OC(F)(F)O2 [F344, 3-Chloro-6-(2,2-difluoro-6-methoxybenzo[d][1,3]dioxol-5-yl)-5-fluoropicolinic acid]	0 to 29
COC(=O)c1nc(-c2ccc(OS(=O)(=O)C(F)(F)F)cc2Cl)ccc1Cl [F364, methyl 3-chloro-6-(2-chloro-4-(((trifluoromethyl)sulfonyl)oxy)phenyl)picolinate]	60 to 74
COC(=O)c1nc(-c2ccc3c(c2)C(F)(F)OC(F)(F)O3)c(Cl)cc1Cl [F202, Methyl 3,5-dichloro-6-(2,2,4,4-tetrafluoro-4H-benzo[d][1,3]dioxin-6-yl)picolinate]	0 to 29

Same assay, conditions: post-emergence, 336 h, wild oat (Avena fatua), 14 Days After Application, 140 g ai/ha, read-out: Visual Growth Reduction (%) AVEFA

SMILES	pest or weed control at 140 g/ha [%]
COc1cc2c(cc1-c1nc(C(=O)O)c(Cl)cc1F)OC(F)(F)O2 [F344, 3-Chloro-6-(2,2-difluoro-6-methoxybenzo[d][1,3]dioxol-5-yl)-5-fluoropicolinic acid]	0 to 29
COC(=O)c1nc(-c2ccc(OS(=O)(=O)C(F)(F)F)cc2Cl)ccc1Cl [F364, methyl 3-chloro-6-(2-chloro-4-(((trifluoromethyl)sulfonyl)oxy)phenyl)picolinate]	0 to 29
COC(=O)c1nc(-c2ccc3c(c2)C(F)(F)OC(F)(F)O3)c(Cl)cc1Cl [F202, Methyl 3,5-dichloro-6-(2,2,4,4-tetrafluoro-4H-benzo[d][1,3]dioxin-6-yl)picolinate]	0 to 29

Same assay, conditions: post-emergence, 336 h, yellow nutsedge (Cyperus esculentus), 14 Days After Application, 140 g ai/ha, read-out: Visual Growth Reduction (%) CYPES

SMILES	pest or weed control at 140 g/ha [%]
COc1cc2c(cc1-c1nc(C(=O)O)c(Cl)cc1F)OC(F)(F)O2 [F344, 3-Chloro-6-(2,2-difluoro-6-methoxybenzo[d][1,3]dioxol-5-yl)-5-fluoropicolinic acid]	0 to 29
COC(=O)c1nc(-c2ccc(OS(=O)(=O)C(F)(F)F)cc2Cl)ccc1Cl [F364, methyl 3-chloro-6-(2-chloro-4-(((trifluoromethyl)sulfonyl)oxy)phenyl)picolinate]	0 to 29
COC(=O)c1nc(-c2ccc3c(c2)C(F)(F)OC(F)(F)O3)c(Cl)cc1Cl [F202, Methyl 3,5-dichloro-6-(2,2,4,4-tetrafluoro-4H-benzo[d][1,3]dioxin-6-yl)picolinate]	0 to 29
